Experiments:
[1] = system: Acinetobacter baumannii strain 2208 (ATCC 19606); test: bacterial proliferation assay, A. baumannii; format: cell-based; conditions: ATCC19606, read-out: Bacterial Proliferation EC50 A. baumannii
Procedure: (§1) All compounds were evaluated for inhibiting the proliferation of E. coli and each of the ESKAPE bacteria. Results presented represent the averages of EC50 values obtained from at least four replicates. Evaluating compounds for inhibition of bacterial cell proliferation.
(§2) Growth Media: E. coli were grown with LB medium and all ESKAPE bacteria were grown in Brain Heart Infusion (BHI) medium (Becton, Dickinson and Company), with all liquid cultures supplemented with 25 mg/L Ca^2+ and 12.5 mg/L Mg^2+ to mimic physiological free concentrations of these cations. A 10 mg/mL Ca^2+ stock solution was prepared by dissolving 1.84 g of CaCl2.2H2O in 50 mL of deionized water, and a 10 mg/mL Mg^2+ stock solution was prepared by dissolving 4.18 g of MgCl2.6H2O in 50 mL deionized water—filter sterilized using 0.2 μm cellulose-acetate filters. 2.5 mL of the sterile 10 mg/mL Ca^2+ stock and 1.25 mL of the sterile 10 mg/mL Mg^2+ stock solutions were added per 1 L of autoclaved LB or BHI media to obtain 25 mg/L Ca^2+ and 12.5 mg/L Mg^2+ ions, respectively.
(§3) General Assay Protocol: Stock bacterial cultures were streaked onto LB or BHI agar plates and grown overnight at 37° C. Fresh aliquots of cation supplemented media were inoculated with single bacterial colonies and the cultures were grown overnight at 37° C. with shaking (240 rpm). The following morning, cultures were diluted 10-fold into fresh media and grown at 37° C. until bacteria had reached mid-log phase growth (OD600˜0.4-0.6). The cultures were then diluted into fresh media to achieve final OD600 readings of 0.017. Aliquots of these diluted cultures (30 μL) were added to clear, flat-bottom 384-well polystyrene plates that were previously stamped with 0.5 μL of test compounds in 20 μL of media (yielding initial OD600=0.01 bacterial cultures). All compounds were tested in dose-response with concentration ranges during the proliferation assays from 100 μM to 46 nM (3-fold dilution series). A second set of baseline control plates were prepared analogously, but without any bacteria added, to correct for possible compound absorbance and/or precipitation. […] Plates were then read at 600 nm using a Molecular Devices SpectraMax Plus384 microplate reader. […] Results presented represent the averages of EC50 values obtained from at least four replicates.
(§4) Evaluating analogs for inhibiting the growth of E. coli and the ESKAPE bacteria. Analogs were initially tested for antibacterial efficacy against representative strains of antibiotic-sensitive E. coli and the ESKAPE bacteria. To determine compound efficacy, bacterial proliferation assays were carried out in liquid media culture supplemented with physiological concentrations of free calcium and magnesium cations. For these assays, bacterial cultures (OD600=0.01) were exposed to test compounds in 8-point, 3-fold dilution series (100 μM to 46 nM concentration range), in 384-well plates. After addition of compounds to cultures, the plates were sealed with Breathe-Easy gas permeable membranes and allowed to grow to mid-log phase (OD600˜0.4-0.6), whereupon final OD600 readings were taken to assess for bacterial growth and inhibition.

native rhodanese = molecular target: T1, native rhodanese (Bos taurus, UniProt P00586); test: native rhodanese enzymatic activity counter-screen; format: biochemical; conditions: compounds added after refolding; read-out: Native Rho Activity IC50
T1 sequence (P00586 1-297): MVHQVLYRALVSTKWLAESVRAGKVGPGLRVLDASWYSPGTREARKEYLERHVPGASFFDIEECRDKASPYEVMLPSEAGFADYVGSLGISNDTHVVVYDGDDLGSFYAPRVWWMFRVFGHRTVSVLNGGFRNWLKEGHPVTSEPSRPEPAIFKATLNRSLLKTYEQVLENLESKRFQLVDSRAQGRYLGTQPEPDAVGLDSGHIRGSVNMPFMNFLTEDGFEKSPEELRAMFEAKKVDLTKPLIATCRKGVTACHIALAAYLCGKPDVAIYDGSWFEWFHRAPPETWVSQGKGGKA
Procedure: Counter-screening compounds for inhibition of native rhodanese enzymatic activity. Reagent Preparations & Assay Protocol: Reagents were identical to those used in the GroEL/ES-dRho refolding assay described above; however, the assay protocol differed in the sequence of compound addition to the wells. Compounds were pin-transferred after 50 minute incubation for the refolding cycle, but prior to the addition of the thiocyanate enzymatic assay stock. Thus, the refolding reactions were allowed to proceed for 50 min at 37° C. in the absence of test compounds, but the enzymatic activity of the refolded rhodanese reporter enzyme was monitored in the presence of test compounds (inhibitor concentration range during the enzymatic reporter reaction is 100 μM to 46 nM—3-fold dilutions). IC50 values for the rhodanese reporter enzyme were determined as described above. Results presented represent the averages of IC50 values obtained from at least four replicates.
All compounds were counter-screened for inhibiting the enzymatic activity of the native Rho reporter enzyme as per our previously reported procedure. Results presented represent the averages of IC50 values obtained from at least four replicates.

[2] = system: Klebsiella pneumoniae strain NCTC 9633 (ATCC #13883); test: bacterial proliferation assay, K. pneumoniae; format: cell-based; conditions: for EC50: Klebsiella pneumoniae, read-out: Bacterial Proliferation EC50 K. pneumoniae
Procedure: as §1, §2, §3, §4

SMILES | EC50 [1] [µM] | IC50 (native rhodanese) [µM] | EC50 [2] [µM] | inhibition of K. pneumoniae in words [2]
O=C(N/N=C/c1ccc(O)c2ncccc12)c1ccccc1 [Compound 5, N′-((8-hydroxyquinolin-5-yl)methylene)benzohydrazide] | 56 | 95 | 82 | 
O=Cc1ccc(O)c2ncccc12 [Compound 40, reference compound] | 11 | 18 | 15 | 
O=C(N/N=C/c1ccc([N+](=O)[O-])o1)c1cccs1 [Compound 16, N′-((5-nitrofuran-2-yl)methylene)thiophene-2-carbohydrazide] | 82 | > 100 | 16 | moderate inhibitors
O=C(N/N=C/c1ccc(O)cc1)c1ccccc1 [Compound 36, N′-(4-hydroxybenzylidene)benzohydrazide] | > 100 | > 100 | > 100 | 
O=C(N/N=C/c1ccc(O)c2ncccc12)c1ccncc1 [Compound 6, N′-((8-hydroxyquinolin-5-yl)methylene)isonicotinohydrazide] | > 100 | > 100 | > 100 | 
COc1ccc(C(=O)N/N=C/c2ccc(O)cc2)cc1 [Compound 35, N′-(4-hydroxybenzylidene)-4-methoxybenzohydrazide] | > 100 | > 100 | > 100 | 
O=C(N/N=C/c1cccc2ncccc12)c1ccccc1 [Compound 32, N′-(quinolin-5-ylmethylene)benzohydrazide] | > 100 | > 100 | > 100 | 
O=Cc1ccc([N+](=O)[O-])o1 [Compound 41, reference compound] | 12 | 32 | 10 | 
O=C(N/N=C/c1ccccc1)c1ccccc1 [Compound 38, N′-benzylidenebenzohydrazide] | > 100 | > 100 | > 100 | 
COc1ccc(C(=O)N/N=C/c2ccco2)cc1 [Compound 39, N′-(furan-2-ylmethylene)-4-methoxybenzohydrazide] | > 100 | > 100 | > 100 | 
CCN(CC)S(=O)(=O)c1cccc(C(=O)N/N=C/c2ccc([N+](=O)[O-])o2)c1 [Compound 25, N,N-diethyl-3-(2-((5-nitrofuran-2-yl)methylene)hydrazine-1-carbonyl)benzenesulfonamide] | > 100 | > 100 | > 100 | 
O=C(N/N=C/c1ccc(O)c2ncccc12)c1ccccc1Oc1ccccc1 [Compound 10, N′-((8-hydroxyquinolin-5-yl)methylene)-2-phenoxybenzohydrazide] | > 100 | 89 | > 100 | 
CCOc1ccc(S(=O)(=O)Nc2ccc(C(=O)N/N=C/c3ccc(O)c4ncccc34)cc2)cc1 [Compound 15, 4-ethoxy-N-(4-(2-((8-hydroxyquinolin-5-yl)methylene)hydrazine-1-carbonyl)phenyl)benzenesulfonamide] | > 100 | > 100 | > 100 | 
COc1ccc(C(=O)N/N=C/c2cccc3ccccc23)cc1 [Compound 33, 4-methoxy-N′-(naphthalen-1-ylmethylene)benzohydrazide] | > 100 | > 100 | > 100 | 
O=C(N/N=C/c1ccc(O)c2ncccc12)c1cccc2ccccc12 [Compound 9, N′-((8-hydroxyquinolin-5-yl)methylene)-1-naphthohydrazide] | > 100 | 97 | > 100 | 
O=C(N/N=C/c1ccc(O)c2ncccc12)c1cccs1 [Compound 3, N′-((8-hydroxyquinolin-5-yl)methylene)thiophene-2-carbohydrazide] | 74 | 87 | 99 | 
O=C(N/N=C/c1ccc(O)c2ncccc12)c1ccc(NS(=O)(=O)c2cccs2)cc1 [Compound 13, N-(4-(2-((8-hydroxyquinolin-5-yl)methylene)hydrazine-1-carbonyl)phenyl)thiophene-2-sulfonamide] | > 100 | > 100 | > 100 | 
CCOc1ccc(S(=O)(=O)Nc2ccc(C(=O)N/N=C/c3ccc([N+](=O)[O-])o3)cc2)cc1 [Compound 28, 4-ethoxy-N-(4-(2-((5-nitrofuran-2-yl)methylene)hydrazine-1-carbonyl)phenyl)benzenesulfonamide] | > 100 | 45 | > 100 | 
O=C(N/N=C/c1ccc([N+](=O)[O-])o1)c1cccc2ccccc12 [Compound 22, N′-((5-nitrofuran-2-yl)methylene)-1-naphthohydrazide] | > 100 | 45 | > 100 | 
O=C(N/N=C/c1ccc([N+](=O)[O-])o1)c1ccccc1Oc1ccccc1 [Compound 23, N′-((5-nitrofuran-2-yl)methylene)-2-phenoxybenzohydrazide] | > 100 | 43 | > 100 | 
COc1ccc(C(=O)N/N=C/c2ccccc2)cc1 [Compound 37, N′-benzylidene-4-methoxybenzohydrazide] | > 100 | > 100 | > 100 | 
COc1ccc(C(=O)NN)cc1 [Compound 42, reference compound] | > 100 | > 100 | > 100 | 
O=C(N/N=C/c1ccc([N+](=O)[O-])o1)c1ccc(NS(=O)(=O)c2cccs2)cc1 [Compound 26, N-(4-(2-((5-nitrofuran-2-yl)methylene)hydrazine-1-carbonyl)phenyl)thiophene-2-sulfonamide] | > 100 | 44 | > 100 | 
COc1ccc(C(=O)N/N=C/c2ccc([N+](=O)[O-])o2)cc1 [Compound 20, 4-methoxy-N′-((5-nitrofuran-2-yl)methylene)benzohydrazide] | > 100 | > 100 | > 100 | 
O=C(N/N=C/c1ccc([N+](=O)[O-])o1)c1ccccc1 [Compound 18, N′-((5-nitrofuran-2-yl)methylene)benzohydrazide] | > 100 | 84 | 36 | 
O=C1CN(/N=C/c2ccc(O)c3ncccc23)C(=O)N1 [Compound 2, 1-(((8-hydroxyquinolin-5-yl)methylene)amino)imidazolidine-2,4-dione] | > 100 | > 100 | > 100 | 
O=C(N/N=C/c1ccc(O)c2ccccc12)c1ccccc1 [Compound 30, N′-((4-hydroxynaphthalen-1-yl)methylene)benzohydrazide] | > 100 | 97 | > 100 | 
COc1ccc(C(=O)N/N=C/c2ccc(O)c3ccccc23)cc1 [Compound 29, N′-((4-hydroxynaphthalen-1-yl)methylene)-4-methoxybenzohydrazide] | > 100 | 66 | > 100 | 
